Data from US8426345B2, “Method of drug design” (Alchemia Limited, priority 2005, dated 2013).

Target: T1, Human SST5 somatostatin receptor (Homo sapiens, UniProt P35346)
T1 construct: expressed in transfected cells; host or cells: HEK-293 EBNA cells (membranes)
Assay: Filter plate radio-ligand binding assay for SST5 receptor ([125I]SST-14 displacement)
Conditions: for % SST5 radio-ligand binding displaced at conc 10: conc 10 μM; for % SST5 radio-ligand binding displaced at conc 50: compound conc 50 μM; for % SST5 radio-ligand binding displaced at conc 50 / % SST5 radio-ligand binding displaced at conc 250 / % SST5 radio-ligand binding displaced at conc 500: 2P library; for % SST5 radio-ligand binding displaced at conc 250: compound conc 250 μM; for % SST5 radio-ligand binding displaced at conc 500: compound conc 500 μM; for % SST5 radio-ligand binding displaced at conc 0.5: conc 0.5 μM; for % SST5 radio-ligand binding displaced at conc 0.25: conc 0.25 μM; for % SST5 radio-ligand binding displaced at conc 1.0: conc 1.0 μM

T1 sequence (P35346 whole entry): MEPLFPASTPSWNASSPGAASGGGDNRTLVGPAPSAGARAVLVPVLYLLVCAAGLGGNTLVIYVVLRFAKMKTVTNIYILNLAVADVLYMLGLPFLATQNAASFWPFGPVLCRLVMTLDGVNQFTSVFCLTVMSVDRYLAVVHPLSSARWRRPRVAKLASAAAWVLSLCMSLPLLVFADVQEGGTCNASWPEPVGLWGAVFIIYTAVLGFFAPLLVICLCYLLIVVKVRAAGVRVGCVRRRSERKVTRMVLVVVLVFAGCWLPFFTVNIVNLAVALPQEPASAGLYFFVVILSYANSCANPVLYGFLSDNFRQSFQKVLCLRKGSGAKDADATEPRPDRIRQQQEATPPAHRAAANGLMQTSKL

With `COCC1OC(OCc2ccc3ccccc3c2)C(NC(=O)CCN)C(OCc2ccc(Cl)cc2)C1O` (mixture of isomers) [Compound 67] the “% SST5 radio-ligand binding displaced at conc 10” value (3P library) was “++ (% SST5 radio-ligand binding displaced at conc (μM) >60%)”.

`COC[C@H]1O[C@@H](OCc2ccc(Cl)cc2)[C@H](NC(=O)CCCN)[C@@H](OC)[C@@H]1O` [Compound 27] was tested, and the “% SST5 radio-ligand binding displaced at conc 50” value was “− (% SST5 radio-ligand binding displaced at cone (μM) −<40%)”, the “% SST5 radio-ligand binding displaced at conc 250” value was “− (% SST5 radio-ligand binding displaced at cone (μM) −<40%)” and the “% SST5 radio-ligand binding displaced at conc 500” value was “− (% SST5 radio-ligand binding displaced at cone (μM) −<40%)”.

With `COC1C(O)C(COCc2cccc(O)c2)OC(OCc2ccc3ccccc3c2)C1NC(=O)CCCN` (mixture of isomers) [Compound 125] the “% SST5 radio-ligand binding displaced at conc 0.5” value (3P library) was “− (% SST5 radio-ligand binding displaced at cone (μM) −<40%)” and the “% SST5 radio-ligand binding displaced at conc 10” value (3P library) was “+ (% SST5 radio-ligand binding displaced at cone (μM) 60>+>40%)”.

For `COC[C@H]1O[C@@H](OCc2ccc3ccccc3c2)[C@H](NC(=O)CCN)[C@H](OCc2ccc3ccccc3c2)[C@@H]1O` [Compound 85], the “% SST5 radio-ligand binding displaced at conc 0.5” value (3P library) was “++ (% SST5 radio-ligand binding displaced at conc (μM) >60%)” and the “% SST5 radio-ligand binding displaced at conc 10” value (3P library) was “++ (% SST5 radio-ligand binding displaced at conc (μM) >60%)”.

In the case of `COC1C(O)C(COCc2ccccc2)OC(OCc2ccc(Cl)cc2)C1NC(=O)CN` (mixture of isomers) [Compound 176], the “% SST5 radio-ligand binding displaced at conc 0.25” value (3P library) is reported as “− (% SST5 radio-ligand binding displaced at cone (μM) −<40%)” and the “% SST5 radio-ligand binding displaced at conc 1.0” value (3P library) is reported as “− (% SST5 radio-ligand binding displaced at cone (μM) −<40%)”.

In the case of `COC[C@H]1O[C@H](OCc2ccc3ccccc3c2)[C@H](NC(=O)C2CCCNC2)[C@@H](OCc2ccc3ccccc3c2)[C@@H]1O` (stereo partly drawn) [Compound 103], the “% SST5 radio-ligand binding displaced at conc 0.25” value (3P library) is reported as “+ (% SST5 radio-ligand binding displaced at cone (μM) 60>+>40%)” and the “% SST5 radio-ligand binding displaced at conc 1.0” value (3P library) is reported as “++ (% SST5 radio-ligand binding displaced at conc (μM) >60%)”.

With `COC[C@H]1O[C@H](OCc2ccc3ccccc3c2)[C@H](NC(=O)CCCN)[C@@H](OCc2ccc(Cl)cc2Cl)[C@@H]1O` [Compound 152] the “% SST5 radio-ligand binding displaced at conc 0.25” value (3P library) was “+ (% SST5 radio-ligand binding displaced at cone (μM) 60>+>40%)” and the “% SST5 radio-ligand binding displaced at conc 1.0” value (3P library) was “++ (% SST5 radio-ligand binding displaced at conc (μM) >60%)”.

For `COCC1OC(OCc2ccc(Cl)cc2)C(NC(=O)CN)C(OCc2ccc3ccccc3c2)C1O` (mixture of isomers) [Compound 175], the “% SST5 radio-ligand binding displaced at conc 0.25” value (3P library) was “− (% SST5 radio-ligand binding displaced at cone (μM) −<40%)” and the “% SST5 radio-ligand binding displaced at conc 1.0” value (3P library) was “− (% SST5 radio-ligand binding displaced at cone (μM) −<40%)”.

`COCC1OC(OCc2ccc(Cl)cc2)C(NC(=O)CN)C(OCc2ccc3ccccc3c2)C1O` (mixture of isomers) [Compound 163] was tested, and the “% SST5 radio-ligand binding displaced at conc 0.001” value (conc 0.001 μM, 3P library) was “− (% SST5 radio-ligand binding displaced at cone (μM) −<40%)”, the “% SST5 radio-ligand binding displaced at conc 0.10” value (conc 0.10 μM, 3P library) was “− (% SST5 radio-ligand binding displaced at cone (μM) −<40%)” and the “% SST5 radio-ligand binding displaced at conc 0.5” value (3P library) was “− (% SST5 radio-ligand binding displaced at cone (μM) −<40%)”. For the same molecule, the “% SST5 radio-ligand binding displaced at conc 1.0” value (3P library) was “− (% SST5 radio-ligand binding displaced at cone (μM) −<40%)” and the “% SST5 radio-ligand binding displaced at conc 10” value (3P library) was “++ (% SST5 radio-ligand binding displaced at conc (μM) >60%)”.

`CO[C@H]1[C@H](O)[C@@H](COCc2ccc3ccccc3c2)O[C@@H](SC)[C@@H]1NC(=O)CN` [Compound 8] was tested, and the “% SST5 radio-ligand binding displaced at conc 50” value was “− (% SST5 radio-ligand binding displaced at cone (μM) −<40%)”, the “% SST5 radio-ligand binding displaced at conc 250” value was “+ (% SST5 radio-ligand binding displaced at cone (μM) 60>+>40%)” and the “% SST5 radio-ligand binding displaced at conc 500” value was “++ (% SST5 radio-ligand binding displaced at conc (μM) >60%)”.

`COC[C@H]1O[C@H](OCc2ccc(Cl)cc2)[C@H](NC(=O)CN)[C@@H](OC)[C@@H]1O` [Compound 11] was tested, and the “% SST5 radio-ligand binding displaced at conc 50” value was “− (% SST5 radio-ligand binding displaced at cone (μM) −<40%)”, the “% SST5 radio-ligand binding displaced at conc 250” value was “− (% SST5 radio-ligand binding displaced at cone (μM) −<40%)” and the “% SST5 radio-ligand binding displaced at conc 500” value was “− (% SST5 radio-ligand binding displaced at cone (μM) −<40%)”.
